Bridge positions count the residues as written; N and C are the ends. Square brackets hold non-standard residues; d marks the D form. Ala(benzothiazol-2-yl) = N[C@@H](Cc1nc2ccccc2s1)C(=O)O
Columns and labels:
[1] = system: human breast cancer derived HCC1395 cells; experiment: HCC1395 breast cancer cell proliferation, amount of ATP (CellTiter-Glo 2.0); type: cell-based; settings: 0 to 100 μM, 72 hours; FIG. 44 left
Protocol: (§1) Human breast cancer derived HCC1395 cells (ATCC, CRL-2327) and HCC1806 (ATCC, CRL-2335) were cultured, collected, and seeded on a 384-well microplate (1×10^3 and 3×10^3/0.04 mL/well). After culturing the cells overnight, a medium comprising GT-11350 (0 to 100 μM) was added (0.01 mL/well). After 72 hours, the cell proliferation capability for each well against the control (test compound-free well) was calculated using the amount of ATP as an indicator, which was measured using CellTiter-Glo 2.0 (Promega, G9242).

[2] = system: human breast cancer derived HCC1806 cells; experiment: HCC1806 breast cancer cell proliferation, amount of ATP (CellTiter-Glo 2.0); type: cell-based; settings: 0 to 100 μM, 72 hours; FIG. 44 right
Protocol: as §1

[3] = system: human pancreatic cancer derived AsPC-1 cells; experiment: AsPC-1 cell proliferation, WST assay; type: cell-based; settings: 10, 30 or 100 μM, 72 hours, FIG. 43
Protocol: Human pancreatic cancer derived AsPC-1 cells (ECACC, 96020930) were passaged (twice/week) under the condition of 37° C. and 5% CO2-95% air using an RPMI-1640 medium (Sigma, R8758-500 ML) comprising 10% fetal bovine serum (biowest, S182H-500) and 1 mM sodium pyruvate (gibco, 11360-070). The AsPC-1 cells were collected from a culture dish using 0.05% trypsin-0.02% EDTA solution (Sigma, T4174-100 ML). The cells were suspended in the medium and then seeded on a 96-well microplate (3×10^3/0.05 mL/well). After culturing the cells overnight, a medium comprising the test compounds (total of 43 compounds, final concentration of 150 μM) was added (0.05 mL/well, 3 wells/test compound). After 72 hours, the cell proliferation capability for each well was measured by a WST assay (DOJINDO LABORATORIES, Cell Counting Kit-8), and the inhibition ratio for each test compound against the control (test compound-free well) was calculated.
A WST assay is a viable cell count measuring method, which uses water-soluble tetrazolium salt WST-8 as a coloring reagent and uses water-soluble formazan generated by reduction of WST-8 as an indicator of viable cell count. NADH produced by a dehydrogenase in a cell converts WST-8 to water-soluble formazan. Since the generated water-soluble formazan has the maximum absorbance at about 450 nm, the viable cell count is indicated by measuring the absorbance at such a wavelength region.
Human pancreatic cancer derived AsPC-1 cells (ECACC, 96020930) were cultured, collected, and seeded on a 96-well microplate (3×10^3/0.05 mL/well) in the same manner as Example 3. After culturing the cells overnight, a medium comprising the test compounds (10, 30, or 100 μM) was added (0.05 mL/well, 3 wells/test compound). After 72 hours, the cell proliferation capability for each well was measured by a WST assay (DOJINDO LABORATORIES, Cell Counting Kit-8), and the inhibition ratio for each test compound against the control (test compound-free well) was computed.

[4] = Body weight of AsPC-1 cancer-bearing mice given peptides; type: in vivo, mouse; settings: total 0.1, 0.2 or 0.4 mg/day, twice a week for 4 weeks; FIG. 49
Protocol: Human pancreatic cancer derived AsPC-1 cells (ECACC, 96020930) were cultured and collected in the same manner as Example 3, suspended in the RPMI-1640 medium described above comprising 10% Matrigel (BD Bioscience, 354234), and transplanted subcutaneously to the right side on the back of a 6-week-old male nude mouse (SLC, BALB/cSlc-nu/nu) (5×10^6/0.1 mL/mouse). The length (L) and width (W) of the tumor were measured using a digital caliper. When the tumor volume (V) calculated from the formula V=L×W^2/2 reached about 150 to 200 mm^3, the mice were separated into groups and administered with test compounds (total of 8 compounds including GT-11263). Saline was administered to a control group. […] The tumor size and body weight were measured twice a week to monitor the status of tumor growth and the effect of the administration of test compounds.
In the same manner as Example 5, human pancreatic cancer derived AsPC-1 cells were transplanted subcutaneously to the right side on the back of a 6-week-old male nude mouse (SLC, BALB/cSlc-nu/nu) (5×10^6/0.1 mL/mouse). The length (L) and width (W) of the tumor were measured using a digital caliper. When the tumor volume (V) calculated from the formula V=L×W^2/2 reached about 150 to 200 mm^3, the mice were separated into groups and administered with test compounds (GT-11269, GT-11309, and GT-11350). […]

[5] = system: human pancreatic cancer derived AsPC-1 cells; experiment: Tumor growth in AsPC-1 cancer-bearing nude mouse model; type: in vivo; settings: intraperitoneal
Protocol: Human pancreatic cancer derived AsPC-1 cells (ECACC, 96020930) were cultured and collected in the same manner as Example 3, suspended in the RPMI-1640 medium described above comprising 10% Matrigel (BD Bioscience, 354234), and transplanted subcutaneously to the right side on the back of a 6-week-old male nude mouse (SLC, BALB/cSlc-nu/nu) (5×10^6/0.1 mL/mouse). The length (L) and width (W) of the tumor were measured using a digital caliper. When the tumor volume (V) calculated from the formula V=L×W^2/2 reached about 150 to 200 mm^3, the mice were separated into groups and administered with test compounds (total of 8 compounds including GT-11263). Saline was administered to a control group. The compounds were administered intraperitoneally (0.1 mL/mouse, 3 to 5 mice/test compound) 3 times daily (one hour interval, a total of 0.2 mg/day), 3 times a week for 2 weeks. The tumor size and body weight were measured twice a week to monitor the status of tumor growth and the effect of the administration of test compounds.
In the same manner as Example 5, human pancreatic cancer derived AsPC-1 cells were transplanted subcutaneously to the right side on the back of a 6-week-old male nude mouse (SLC, BALB/cSlc-nu/nu) (5×10^6/0.1 mL/mouse). The length (L) and width (W) of the tumor were measured using a digital caliper. When the tumor volume (V) calculated from the formula V=L×W^2/2 reached about 150 to 200 mm^3, the mice were separated into groups and administered with test compounds (GT-11269, GT-11309, and GT-11350). Saline was administered to a control group. The compounds were administered intraperitoneally (0.1 mL/mouse, 5 mice/test compound) 3 times daily (one hour interval, a total of 0.5 mg/day), twice a week for 4 weeks. The tumor size and body weight were measured twice a week to monitor the effect of the administration of test compounds (FIG. 45).
(§2) In the same manner as Example 5, human pancreatic cancer derived AsPC-1 cells were transplanted subcutaneously to the right side on the back of a 6-week-old male nude mouse (SLC, BALB/cSlc-nu/nu), and when the tumor volume (V) reached about 150 to 200 mm^3, the mice were separated into groups and administered with test compounds (GT-11350). Saline was administered to a control group. The compounds were administered intraperitoneally (0.1 mL/mouse) 3 times daily (one hour interval, a total of 0.1 mg, 0.2 mg, or 0.4 mg/day), twice a week for 4 weeks. The tumor size and body weight were measured twice a week to monitor the effect of the dose of test compounds (FIG. 49).
as §2, with “of” for “of 0.1 mg,”, “mg/day)” for “mg,”, “once daily (0.2” for “0.4”, “administration” for “dose”, “compounds.” for “compounds (FIG. 49).”

[6] = Hematocrit value and blood hemoglobin concentration in AsPC-1 cancer-bearing mice; type: in vivo, mouse; settings: day 4 from final administration, 0.1, 0.2 or 0.4 mg/day; FIG. 50
Protocol: Blood was drawn on day 6 from the final administration from an AsPC-1 cancer-bearing mouse administered with GT-11269, GT-11309, or GT-11350 by the same protocol, and the hematocrit value was measured by the capillary method using a high speed centrifuge. The blood hemoglobin concentration was also measured using a commercially available measurement kit (BioAssay Systems, DIHB-250) (FIG. 47).
Blood was drawn on day 4 from the final administration from an AsPC-1 cancer-bearing mouse administered with GT-11350 by the same protocol, and the hematocrit value was measured by the capillary method using a high speed centrifuge. The blood hemoglobin concentration was also measured using a commercially available measurement kit (BioAssay Systems, DIHB-250) (FIG. 50).

[7] = system: human liver cancer derived HepG2 cells; experiment: Lethal effect of synthetic peptides on HepG2 cells (Trypan blue positive cell count); type: cell-based; settings: 120, 60, 30 or 15 μM, 24 hours; FIGS. 34 to 37
[8] = system: human T cell leukemia derived ATL-2 cells; experiment: ATL-2 cell proliferation, WST assay; type: cell-based; settings: 150 μM, 72 hours, FIG. 39
Protocol: Human T cell leukemia derived ATL-2 cells (provided by Dr. Maeda at the Kyoto University) were passaged (twice/week) under the condition of 37° C. and 5% CO2-95% air using an RPMI-1640 medium (Sigma, R8758-500 mL) comprising 10% fetal bovine serum (biowest, S182H-500). The ATL-2 cells were collected from a culture flask. The cells were suspended in the medium and then seeded on a 96-well microplate (3×10^3/0.05 mL/well). After culturing the cells overnight, a medium comprising the test compounds (total of 32 compounds, final concentration of 150 μM) was added (0.05 mL/well, 3 wells/test compound). After 72 hours, the cell proliferation capability for each well was measured by a WST assay (DOJINDO LABORATORIES, Cell Counting Kit-8), and the inhibition ratio for each test compound against the control (test compound-free well) was calculated.

[9] = system: human leukemia derived UT-7 cells; experiment: Epo dependent UT-7 cell proliferation, WST assay; type: cell-based; settings: Epo 1 U/mL, 4 days; GT-11309 1 to 100 μM, antibodies 1 to 100 μg/mL; FIG. 42
Protocol: Human leukemia derived UT-7 cells (provided by Dr. Fujita at the Hokkaido University) were passaged (twice/week) under the condition of 37° C. and 5% CO2-95% air using a D-MEM medium (Sigma, D5796-500 ML) comprising recombinant human erythropoietin (Epo, 2 U/mL) and 10% fetal bovine serum (biowest, S182-H-500), and cultured for a total of 9 weeks. The Epo treated UT-7 cells were washed three times and seeded on a 96-well microplate (1×10^4/well). An anti-Epo monoclonal antibody (clone R6, provided by Dr. Masuda at the Kyoto University, 1 to 100 μg/mL), anti-EpoR monoclonal antibody (clone 713210, R&D Systems, MAB3073, 1 to 100 μg/mL) or GT-11309 (1 to 100 μM), in the presence of Epo (0 to 10 U/mL) or Epo (1 U/mL), was added. After 4 days of culture, the cell proliferation capability for each well was measured as absorbance at 450 nm by a WST assay (DOJINDO LABORATORIES, Cell Counting Kit-8).

Substance | proliferation suppressing capability against breast cancer cell line HCC1395 [1] | proliferation suppressing capability against breast cancer cell line HCC1806 [2] | proliferation inhibiting action against AsPC-1 cells (inhibition ratio against control) [3] | body weight [4] | anti-tumor effect, 3 times daily versus once daily ([5]; 0.2 mg/day, 3 times daily or once daily, twice a week for 4 weeks, FIG. 51) | anti-tumor effect (relative tumor volume) by dose ([5]; 3 times daily, total 0.1, 0.2 or 0.4 mg/day, twice a week for 4 weeks, FIG. 49) | blood hemoglobin concentration [6] | hematocrit value [6] | HepG2 cell killing effect compared with YS12 (Trypan blue positive cells per 1 mm^2) [7] | proliferation inhibiting action on ATL-2 cells (inhibition ratio against control) [8] | Epo dependent cancer cell proliferation (UT-7) [9] | antitumor effect (relative tumor volume) ([5]; 3 times daily, total 0.2 mg/day, 3 times a week for 2 weeks, FIG. 40)
Ac-SCHYGPMT(2-benzothiazolylalanine)VCK-NH2 [GT-11350] | exhibited proliferation suppressing capability | exhibited proliferation suppressing capability | potent proliferation inhibiting action | not affected | same anti-tumor effect for both 3 times daily and once daily administration methods | dose dependent anti-tumor effect | none of the doses had an effect | none of the doses had an effect | – | – | – | –
Ac-SCHYGPLT(2-benzothiazolylalanine)VCK-NH2 (Ac-SCHYGPLT[Ala(benzothiazol-2-yl)]VCK-NH2; disulfide 2-11 (inferred)) [GT-11309] | – | – | potent proliferation inhibiting action | – | – | – | – | – | equivalent or greater than that of YS12 | potent proliferation inhibiting action | suppressed Epo dependent cancer cell proliferation | potent and had an early manifestation of effect
